From paper PMC9181982, “Biphenyl Ether Analogs Containing Pomalidomide as Small-Molecule Inhibitors of the Programmed Cell Death-1/Programmed Cell Death-Ligand 1 Interaction” (Molecules, 2022)

Assays:
[1] = system: PD-1/PD-L1 blockade, Jurkat effector cells / CHO/TCRAct/PD-L1 cells; experiment: Immune checkpoint blockade (ICB) assay (Promega): Jurkat ECs co-cultured with CHO/TCRAct/PD-L1 cells, NFAT luciferase readout; format: cell-based, human; conditions: for Promega Assay (active / not active): cell-based PD-1/PD-L1 blockade bioassay
Procedure: In order to explore the bioactivity of the synthesized compounds, a well-recognized immune checkpoint blockade (ICB) assay was performed. In the assay, artificial T cells, the Jurkat effector cells (Jurkat ECs), i.e., the Jurkat T cells overexpressing PD-1 and luciferase-coding gene under the control of the TCR-inducible NFAT response element, are contacted with artificial antigen-presenting CHO/TCRAct/PD-L1 cells, as illustrated in [31]. The latter is the CHO cells equipped with the TCR activator molecule, which delivers activation of Jurkat ECs, and also the PD-L1 protein, which provides a negative signal towards the activation of Jurkat ECs. Upon the blockade of the PD-1/PD-L1 interaction, activation of Jurkat ECs is increased, as we have shown before for several classes of therapeutic antibodies and small molecules.
The human PD-L1-expressing CHO-K1 cells overexpressing TCR activator (CHO/TCRAct/PD-L1) cells and Jurkat ECs T cells overexpressing PD-1 and carrying a luciferase reporter gene under the control of the Nuclear Factor of Activated T cells Response Element (NFAT-RE) were obtained from Promega and cultured in an RPMI-1640 medium (Biowest, Nuaillé, France) supplemented with 10% fetal bovine serum (FBS, Biowest, Nuaillé, France) and […] L-glutamine (Biowest, Nuaillé, France). G418 (250 µg/mL, InvivoGen, San Diego, CA, USA) and Hygromycin B Gold (50 µg/mL, InvivoGen, San Diego, CA, USA) were also added to the culture medium as selection antibiotics. CAKI 2, LNCap, PC-3, and MDA-MB-231 cells were purchased from the European Collection of Authenticated Cell Cultures (ECACC) and cultured according to the provided protocol.
For the analysis of biological activity of the analyzed compounds, an immune checkpoint blockade (ICB) assay was performed. For this, the culture of Jurkat effector cells (Jurkat-ECs) and […] was carried out. The assay was performed according to the protocol described in our previous works. All the experiments were performed three times as independent experiments.
Figure 2 Bioactivity of the indicated compounds. (A,B) The activity was monitored with a cell-based immune checkpoint blockade (ICB) assay. Jurkat ECs were contacted with pre-seeded CHO/TCRAct/PD-L1 cells in the presence of the indicated concentrations of the compounds (A) or durvalumab (B) as a positive control. The cells were co-cultured for 6 h and the luminescence signal was measured following the addition of the Bio-Glo substrate. The graphs show fold induction calculated versus either DMSO-treated (for small molecules) or untreated (for durvalumab) control (ctrl) cells. The results are mean ± SD from three independent experiments. […] (C) Analysis of the expression of PD-L1 in four human cancer cell lines compared to PD-L1-overexpressing CHO/TCRAct/PD-L1 cells. (D) Analysis of the expression of PD-L1 in MDA-MB-231 cells treated with either 4 or 5 compounds for 6 or 24 h.

PD-1/PD-L1 complex = target: T1, PD-1/PD-L1 complex (Homo sapiens, UniProt Q9NZQ7); experiment: HTRF (homogeneous time-resolved fluorescence) PD-1/PD-L1 binding assay (Cis-Bio); conditions: for inhibition at 0.5 µM / HTRF: Percentage of the Dissociated PD-1/PD-L1 Complex, 0.5 µM Ligand Conc.: 0.5 µM ligand; for inhibition at 0.5 µM / inhibition at 5 µM / HTRF: Percentage of the Dissociated PD-1/PD-L1 Complex, 0.5 µM Ligand Conc. / HTRF: Percentage of the Dissociated PD-1/PD-L1 Complex, 5 µM Ligand Conc.: 5 nM hPD-L1, 50 nM hPD-1; for inhibition at 0.5 µM: read-out: HTRF: Percentage of the Dissociated PD-1/PD-L1 Complex, 0.5 µM Ligand Conc.; for inhibition at 5 µM / HTRF: Percentage of the Dissociated PD-1/PD-L1 Complex, 5 µM Ligand Conc.: 5 µM ligand; for inhibition at 5 µM: read-out: HTRF: Percentage of the Dissociated PD-1/PD-L1 Complex, 5 µM Ligand Conc.
T1 construct: purchased Cis-Bio
Procedure: To validate the activity toward PD-L1 of our compounds, we carried out an HTRF (homogeneous time-resolved fluorescence) experiment at two concentrations of the ligand (5 µM and 0.5 µM) (Table 1).
HTRF was carried out using a certified Cis-Bio assay according to the manufacturer’s guidelines. The experiments were carried out at 5 nM of h-L1 and 50 nM of hPD-1 in the final formulation at the 20 µL final volume in the well. To determine the half maximal inhibitory concentrations (IC50) of the tested compounds, the measurements were carried out on two individual dilution series unless stated otherwise. After mixing all the components according to the Cis-Bio protocol, the plate was left for 2 h incubation at room temperature followed by the TR-FRET measurement on a Tecan Spark 20M. […] The collected data was background-subtracted from the negative control, normalized on the positive control, averaged, and fitted with the normalized Hill’s equation to determine the IC50 value using Mathematica 12 (Princeton, NJ, USA).

PD-L1 protein = target: T2, PD-L1 protein (Homo sapiens, UniProt Q9NZQ7); experiment: 1H NMR binding analysis, PD-L1 protein titrated with ligand; conditions: 1H NMR titration; compound 6 at protein–ligand ratio 1:10
T2 construct: PD-L1 gene (amino acids 18–239); made in house; host or cells: E. coli BL21
Procedure: Apart from the HTRF assay, we performed the NMR [33, 34] binding analysis by recording the ^1H spectrum of the PD-L1 protein titrated with compound 4 (Figure 1).
The E. coli strain BL21 was transformed with a pET-21b plasmid carrying the PD-L1 gene (amino acids 18–239). The bacteria were cultured in LB at 37 °C until OD600nm of 0, 6 when the recombinant protein production was induced with 1 mM IPTG. The protein production continued overnight. The inclusion bodies were collected by centrifugation, washed twice with 50 mM Tris HCl, pH 8.0, containing 200 mM NaCl, 10 mM EDTA, 10 mM 2-mercaptoethanol, and 0.5% Triton X-100, followed by a single wash with the same buffer but with no Triton X-100. The washed inclusion bodies were resuspended overnight in 50 mM Tris HCl, pH 8.0, 6 M GuHCl, 200 mM NaCl, and 10 mM 2-mercaptoethanol and clarified with centrifugation. Refolding of PD-L1 was performed by dropwise dilution into 0.1 M Tris HCl, pH 8.0, containing 1 M L-arginine hydrochloride, 0.25 mM oxidized glutathione, and 0.25 mM reduced glutathione. The refolded protein was dialyzed three times against 10 mM Tris HCl, pH 8.0, containing 20 mM NaCl and purified by size exclusion chromatography using Superdex 75 and a dialysis buffer. The quality of the refolded protein was evaluated by SDS-PAGE and NMR.
NMR spectra were recorded in PBS, pH 7.4, containing 10% (v/v) of D2O added to the samples to provide the lock signal. Water suppression was carried out using the WATERGATE sequence. All the spectra were recorded at 300 K using a Bruker Avance 600 MHz spectrometer with the Cryo-Platform. The NMR spectrum was recorded at three different ligand/protein ratios from 0 to 10. The samples were prepared by adding small amounts of a 50 mM ligand stock solution in DMSO to the protein solution (0.20 mL) of the PD-L1 fragment at a concentration of 0.14 mM. The acquisition parameters for each spectrum were as follows: size of FID32768, number of scans: 32. The spectra were visualized using TopSpin 4.0.2. (Bruker, Billerica, MA, USA)

T1 sequence (Q9NZQ7 19-238 limits assumed, one chain of several): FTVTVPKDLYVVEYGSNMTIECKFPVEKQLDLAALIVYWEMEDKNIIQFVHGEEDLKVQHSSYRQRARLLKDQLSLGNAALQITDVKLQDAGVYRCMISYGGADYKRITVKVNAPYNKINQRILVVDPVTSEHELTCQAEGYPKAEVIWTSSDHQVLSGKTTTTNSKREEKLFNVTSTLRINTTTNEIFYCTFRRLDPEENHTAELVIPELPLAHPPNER
T2 sequence (Q9NZQ7 18-239): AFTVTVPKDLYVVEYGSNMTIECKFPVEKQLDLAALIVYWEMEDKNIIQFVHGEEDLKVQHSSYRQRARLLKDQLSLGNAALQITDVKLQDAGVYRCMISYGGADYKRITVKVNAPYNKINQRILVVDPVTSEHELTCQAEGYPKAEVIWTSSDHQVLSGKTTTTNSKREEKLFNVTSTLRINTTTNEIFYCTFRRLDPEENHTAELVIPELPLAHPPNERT

inhibition at 0.5 µM (PD-1/PD-L1 complex) [%] | inhibition at 5 µM (PD-1/PD-L1 complex) [%] | Protein precipitation during NMR titration (PD-L1 protein) | IC50 (PD-1/PD-L1 complex; six ligand concentrations, two dilution series) [nM] | Compound | Promega Assay (active / not active) [1] | HTRF: Percentage of the Dissociated PD-1/PD-L1 Complex, 0.5 µM Ligand Conc. (PD-1/PD-L1 complex) [%] | HTRF: Percentage of the Dissociated PD-1/PD-L1 Complex, 5 µM Ligand Conc. (PD-1/PD-L1 complex) [%] | Activation of Jurkat ECs in the ICB assay ([1]; 6 h co-culture, fold induction vs control)
40.9 | 76.3 | – | – | Cc1c(COc2ccc3nc(CNC(=O)CCCC(=O)Nc4cccc5c4C(=O)N(C4CCC(=O)NC4=O)C5=O)c(NCc4cccc(C#N)c4)n3c2)cccc1-c1ccc(F)cc1 (centres unmarked) [compound 12, N1-((3-((3-cyanobenzyl)amino)-6-((4′-fluoro-2-methyl-[1,1′-biphenyl]-3-yl)methoxy)imidazo [1,2-a]pyridin-2-yl)methyl)-N5-(2-(2,6-dioxopiperidin-3-yl)-1,3-dioxoisoindolin-4-yl)glutaramide] | Not active | – | – | –
0 | 35.2 | – | – | COc1nc(OCc2cccc(-c3ccccc3)c2C)ccc1C(NCCCNc1cccc2c1C(=O)N(C1CCC(=O)NC1=O)C2=O)c1nnnn1C(C)(C)C (centres unmarked) [compound 7, 4-((3-(((1-(tert-butyl)-1H-tetrazol-5-yl)(2-methoxy-6-((2-methyl-[1,1′-biphenyl]-3-yl)methoxy)pyridin-3-yl)methyl)amino)propyl)amino)-2-(2,6-dioxopiperidin-3-yl)isoindoline-1,3-dione] | Not active | – | – | –
26.3 | 40 | – | – | COc1cc(-c2cccc(-c3ccc4c(c3)OCCO4)c2Cl)ccc1COC(=O)CCCC(=O)N1CCN(c2cccc3c2C(=O)N(C2CCC(=O)NC2=O)C3=O)CC1 (centres unmarked) [compound 11] | Not active | – | – | –
23.7 | 68.3 | – | – | Cc1c(COc2cc(OCc3cccc(C#N)c3)c(CN3C[C@H](O)C[C@@H]3C(=O)NCC3CCN(CC(=O)Nc4cccc5c4C(=O)N(C4CCC(=O)NC4=O)C5=O)CC3)cc2Cl)cccc1-c1ccc2c(c1)OCCO2 (stereo partly drawn) [compound 1, (2R,4R)-1-(5-chloro-2-((3-cyanobenzyl)oxy)-4-((3-(2,3-dihydrobenzo[b][1,4]dioxin-6-yl)-2-methylbenzyl)oxy)benzyl)-N-((1-(2-((2-(2,6-dioxopiperidin-3-yl)-1,3-dioxoisoindolin-4-yl)amino)-2-oxoethyl)piperidin-4-yl)methyl)-4-hydroxypyrrolidine-2-carboxamide] | Not active | – | – | –
– | – | not observed | – | Cc1c(COc2cc(OCc3cccc(C#N)c3)c(CN3C[C@H](O)C[C@@H]3C(=O)O)cc2Cl)cccc1-c1ccc2c(c1)OCCO2 [BMS-1166, reference compound] | – | 100 | 100 | –
77.8 | 97.1 | – | 60 ± 2 | Cc1c(COc2cc(OCc3cccc(C#N)c3)c(CNCC3CCN(CC(=O)Nc4cccc5c4C(=O)N(C4CCC(=O)NC4=O)C5=O)CC3)cc2Cl)cccc1-c1ccc2c(c1)OCCO2 (centres unmarked) [compound 3, 2-(4-(((5-chloro-2-((3-cyanobenzyl)oxy)-4-((3-(2,3-dihydrobenzo[b][1,4]dioxin-6-yl)-2-methylbenzyl)oxy)benzyl)amino)methyl)piperidin-1-yl)-N-(2-(2,6-dioxopiperidin-3-yl)-1,3-dioxoisoindolin-4-yl)acetamide] | Not active | – | – | –
3.9 | 71.7 | – | – | Cc1c(COc2cc(OCc3cccc(C#N)c3)c(CN3C[C@H](O)C[C@@H]3C(=O)NCCCNc3cccc4c3C(=O)N(C3CCC(=O)NC3=O)C4=O)cc2Cl)cccc1-c1ccc2c(c1)OCCO2 (stereo partly drawn) [compound 2, (2R,4R)-1-(5-chloro-2-((3-cyanobenzyl)oxy)-4-((3-(2,3-dihydrobenzo[b][1,4]dioxin-6-yl)-2-methylbenzyl)oxy)benzyl)-N-(3-((2-(2,6-dioxopiperidin-3-yl)-1,3-dioxoisoindolin-4yl)amino)propyl)-4-hydroxypyrrolidine-2-carboxamide] | Not active | – | – | –
– | – | – | – | durvalumab | – | – | – | increase the activation of Jurkat ECs
29.4 | 60.6 | – | – | COc1cc(-c2cccc(-c3ccc4c(c3)OCCO4)c2Cl)ccc1COC(=O)CCC(=O)N1CCN(c2cccc3c2C(=O)N(C2CCC(=O)NC2=O)C3=O)CC1 (centres unmarked) [compound 10, (3′-(benzo-1,4-dioxan-6-yl)-2′-chloro-3-methoxy-[1,1′-biphenyl]-4-yl)methyl 4-(4-(2-(2,6-dioxopiperidin-3-yl)-1,3-dioxoisoindolin-4-yl)piperazin-1-yl)-4-oxobutanoate] | Not active | – | – | –
– | – | – | – | N1-(2-(2,6-dioxopiperidin-3-yl)-1,3-dioxoisoindolin-4-yl)-N5-((6-((2-methyl-[1,1′-biphenyl]-3-yl)methoxy)-3-((1-phenylethyl)amino)imidazo [1,2-a]pyridin-2-yl)methyl)glutaramide [compound 13] | Not active | 30.4 | 31.1 | –
